#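 In this assay, cells in 96-well plates receive the compound at five concentrations for 48 hours. Endpoints are linearly interpolated between the surrounding concentrations. GI50 = concentration required for 50% inhibition of growth. TGI: concentration producing complete growth inhibition.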
# How the values were obtained:
# Test in all cases: NCI anticancer screen, dose series, 48 h
# [1] = system: HCT-15 colon
# [2] = system: HL-60(TB) leukemia
# [3] = system: MOLT-4 leukemia
# [4] = system: NCI-H460 lung
# [5] = system: NCI-H522 lung
# [6] = system: OVCAR-4 ovarian
# [7] = system: SF-295 CNS
# [8] = system: SR leukemia
SMILES,TGI [1],TGI [2],TGI [3],TGI [4],TGI [5],TGI [6],TGI [7],TGI [8],GI50 [1],GI50 [2],GI50 [3],GI50 [4],GI50 [5],GI50 [7],GI50 [8]
COC1=CC(=O)CC(C)C12Oc1c(Cl)c(OC)cc(OC)c1C2=O (stereo not drawn),> 100 µM,> 44.1 µM,> 100 µM,> 100 µM,23.1 µM,> 100 µM,57.3 µM,> 28.2 µM,,,,,,,
Cc1cccc(N2C(=O)C3c4[nH]c5ccccc5c4C4CCC(C(C)(C)C)CC4C3C2=O)c1 (stereo not drawn),> 100 µM,> 100 µM,21.3 µM,19 µM,24.3 µM,25.7 µM,21.9 µM,,,,,,,,
CC(=O)Nc1c(S(=O)(=O)c2ccccc2)c(C)c(C)n1Cc1ccccc1,> 100 µM,> 100 µM,> 100 µM,> 100 µM,> 100 µM,> 100 µM,> 100 µM,,,,,,,,
CCOC(=O)C(NC(=O)c1ccccc1)(N1CCN(c2cc3c(cc2F)c(=O)c(C(=O)O)cn3CC)CC1)C(F)(F)F (stereo not drawn),64.9 µM,43 µM,54.2 µM,> 100 µM,32.4 µM,> 100 µM,> 100 µM,62.5 µM,,,,,,,
O=c1oc2ccccc2cc1-c1cn2c(n1)sc1ccccc12,> 100 µM,> 100 µM,> 100 µM,> 100 µM,> 100 µM,,> 100 µM,> 100 µM,,,,,,,
c1csc(-c2ccsc2-c2cccs2)c1,> 100 µM,86.7 µM,71.1 µM,> 100 µM,> 100 µM,> 100 µM,> 100 µM,21.3 µM,,,,,,,
COc1ccccc1NC(=O)CC(=O)N1N=C(N2c3ccccc3Sc3ccccc32)CC1c1ccccc1 (stereo not drawn),> 100 µM,> 100 µM,> 100 µM,> 100 µM,> 100 µM,> 100 µM,> 100 µM,> 100 µM,,,,,,,
O=C(O)c1cnc(-n2[nH]c3c(c2=O)CCCC3)[nH]c1=O,> 100 µM,> 100 µM,> 100 µM,> 100 µM,> 100 µM,> 100 µM,> 100 µM,> 100 µM,,,,,,,
Cc1ccc(C2=C(C#N)C(N)OC3=C2COc2ccccc23)cc1 (stereo not drawn),> 100 µM,> 100 µM,> 100 µM,> 100 µM,,40.7 µM,,> 100 µM,,,,,,,
S=c1[nH]n2c(CCCCCCCCc3nnc4sc(=S)[nH]n34)nnc2s1,> 100 µM,> 100 µM,> 100 µM,> 100 µM,> 100 µM,> 100 µM,> 100 µM,> 100 µM,,,,,,,
Cc1cc(S(=O)(=O)Nc2nc3ccccc3nc2-c2ccc(Cl)cc2)c(S)cc1Cl,42.2 µM,44.1 µM,42.2 µM,29.4 µM,28.3 µM,28.2 µM,35 µM,37.8 µM,,,,,,,
CCOC(=O)C(Cc1ccc(OC(=O)OC(C)(C)C)cc1)NC(=O)OC(C)(C)C (stereo not drawn),> 100 µM,80.1 µM,56.7 µM,> 100 µM,> 100 µM,> 100 µM,> 100 µM,67.5 µM,,,,,,,
CC(=O)Oc1c(N2CCCCC2)c(C(=O)c2ccccc2)c(O)c2ccn(N(C)C)c12,35.9 µM,29.5 µM,49.8 µM,51.2 µM,,58.2 µM,42.4 µM,,,,,,,,
COC1=CC2(CC(OC)=C1OC)OC21COc2ccccc2C1=O (stereo not drawn),> 100 µM,> 100 µM,> 100 µM,> 100 µM,> 100 µM,> 100 µM,> 100 µM,89.7 µM,,,,,,,
OCCN(/N=C\c1ccc2ccccc2c1)C1=NCCN1,> 100 µM,43.6 µM,44.5 µM,> 100 µM,,> 100 µM,> 100 µM,55.9 µM,,,,,,,
O=C(/C=C(\S/C=C(/c1ccccc1)N1CCn2c(C(=O)c3ccccc3)c(C(=O)c3ccccc3)c(C(=O)c3ccccc3)c21)C(=O)c1ccccc1)c1ccccc1,> 10 µM,> 10 µM,> 10 µM,> 10 µM,> 10 µM,> 10 µM,> 10 µM,,,,,,,,
C=CCN(CCNS(=O)(=O)c1ccc(C)cc1)S(=O)(=O)c1ccc(C)cc1,> 100 µM,47.6 µM,> 84.5 µM,> 71.7 µM,> 100 µM,> 100 µM,> 100 µM,> 100 µM,,,,,,,
Cn1c(CO)ccc1-c1ccc(-c2ccc[se]2)[se]1,> 100 µM,> 63.2 µM,59.7 µM,> 100 µM,> 100 µM,39.5 µM,> 100 µM,> 100 µM,,,,,,,
CCCCCCCCCCCCCCCCOP(=O)(O)OCC(N)C(=O)O (stereo not drawn),61.3 µM,,29 µM,51.8 µM,42 µM,35.6 µM,31.3 µM,61.4 µM,,,,,,,
O=C(N/N=C\c1ccc(N(CCCl)CCCl)cc1[N+](=O)[O-])c1cccnc1,> 100 µM,> 100 µM,> 100 µM,> 100 µM,> 100 µM,,> 100 µM,> 100 µM,> 100 µM,> 100 µM,> 100 µM,> 100 µM,> 100 µM,> 100 µM,> 100 µM
Nc1[nH]nc2nc3ccccc3nc12,> 100 µM,> 100 µM,> 100 µM,> 100 µM,> 100 µM,> 100 µM,> 100 µM,75.2 µM,,,,,,,
COc1ccc(N=NC(=O)NC(CC(C)C)C(N)=O)cc1 (stereo not drawn),> 31.6 µM,> 100 µM,> 100 µM,> 31.6 µM,> 100 µM,> 31.6 µM,> 100 µM,> 100 µM,,,,,,,
CC(C)(C)OC(=O)CN1CCNCCN(CC(=O)OC(C)(C)C)CCNCC1,> 100 µM,> 100 µM,> 100 µM,> 100 µM,> 100 µM,> 100 µM,> 100 µM,> 100 µM,,,,,,,
NCC(O)CNC(=O)c1ccc(-c2ccc(-c3ccc(C(=O)NCC(O)CN)cc3)o2)cc1 (stereo not drawn),> 100 µM,> 100 µM,> 100 µM,> 100 µM,> 100 µM,> 100 µM,56.6 µM,> 100 µM,,,,,,,

# Reference: PubChem BioAssay (NCI)
